Assays:
BTK = target: T1, BTK (Homo sapiens, UniProt Q06187); assay: BTK-GFP protein abundance flow cytometry assay in HEK293A; format: cell-based; conditions: 24 h; for BTK degradation Amax: % protein remaining at the concentration at which maximum degradation is seen, HEK293A; for DC50: concentration at which 50% maximal degradation was observed, HEK293A BTK-GFP sensor cells
T1 construct: the BTK open reading frame (ORF) was first shuttled from a pcDNA-DEST40-BTK vector; expressed in transfected cells; host or cells: HEK293A (Invitrogen R70507), lentiviral transduction, blasticidin selection
T1 sequence (Q06187 whole entry): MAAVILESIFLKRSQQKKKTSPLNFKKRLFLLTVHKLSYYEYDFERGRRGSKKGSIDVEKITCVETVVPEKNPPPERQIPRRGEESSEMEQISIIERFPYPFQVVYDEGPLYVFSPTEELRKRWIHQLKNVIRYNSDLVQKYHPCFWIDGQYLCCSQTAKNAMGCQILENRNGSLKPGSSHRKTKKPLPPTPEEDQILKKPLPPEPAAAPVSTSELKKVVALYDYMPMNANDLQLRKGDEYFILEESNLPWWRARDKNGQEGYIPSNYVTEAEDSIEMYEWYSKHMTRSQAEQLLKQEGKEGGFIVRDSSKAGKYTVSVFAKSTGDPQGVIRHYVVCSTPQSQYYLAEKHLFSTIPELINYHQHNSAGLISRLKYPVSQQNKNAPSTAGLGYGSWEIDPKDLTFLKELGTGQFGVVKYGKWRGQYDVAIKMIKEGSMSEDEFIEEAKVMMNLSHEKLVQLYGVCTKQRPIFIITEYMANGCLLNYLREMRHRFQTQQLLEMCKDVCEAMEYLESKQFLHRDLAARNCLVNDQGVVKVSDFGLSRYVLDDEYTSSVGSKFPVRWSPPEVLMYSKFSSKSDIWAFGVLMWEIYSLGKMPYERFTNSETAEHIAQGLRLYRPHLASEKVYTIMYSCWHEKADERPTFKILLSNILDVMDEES
Outline: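 HEK293A cells stably expressing bicistronic BTK-GFP-iresRFP were treated 24 h at 37° C with 10-point 1:3 dilutions from 10 μM, DMSO at 0.1%. GFP was read by flow cytometry as median of 5,000 single cells, scaled between RFP-only cells (0%) and DMSO controls (100%). DC50 = concentration at 50% degradation; Amax = % protein remaining at maximal degradation.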

EPHA4 = target: T2, EPHA4 (Homo sapiens, UniProt P54764); assay: EPHA4-GFP protein abundance flow cytometry assay in HEK293A; format: cell-based; conditions: for EPHA4 Amax: % protein remaining at the concentration of maximum degradation; for DC50: HEK293A EPHA4-GFP sensor cells, 24 h
T2 construct: EGFP (after a Leu that replaces the STOP codon); expressed in transfected cells; host or cells: HEK293A (Invitrogen R70507), lentiviral transduction
T2 sequence (P54764 20-986, species assumed): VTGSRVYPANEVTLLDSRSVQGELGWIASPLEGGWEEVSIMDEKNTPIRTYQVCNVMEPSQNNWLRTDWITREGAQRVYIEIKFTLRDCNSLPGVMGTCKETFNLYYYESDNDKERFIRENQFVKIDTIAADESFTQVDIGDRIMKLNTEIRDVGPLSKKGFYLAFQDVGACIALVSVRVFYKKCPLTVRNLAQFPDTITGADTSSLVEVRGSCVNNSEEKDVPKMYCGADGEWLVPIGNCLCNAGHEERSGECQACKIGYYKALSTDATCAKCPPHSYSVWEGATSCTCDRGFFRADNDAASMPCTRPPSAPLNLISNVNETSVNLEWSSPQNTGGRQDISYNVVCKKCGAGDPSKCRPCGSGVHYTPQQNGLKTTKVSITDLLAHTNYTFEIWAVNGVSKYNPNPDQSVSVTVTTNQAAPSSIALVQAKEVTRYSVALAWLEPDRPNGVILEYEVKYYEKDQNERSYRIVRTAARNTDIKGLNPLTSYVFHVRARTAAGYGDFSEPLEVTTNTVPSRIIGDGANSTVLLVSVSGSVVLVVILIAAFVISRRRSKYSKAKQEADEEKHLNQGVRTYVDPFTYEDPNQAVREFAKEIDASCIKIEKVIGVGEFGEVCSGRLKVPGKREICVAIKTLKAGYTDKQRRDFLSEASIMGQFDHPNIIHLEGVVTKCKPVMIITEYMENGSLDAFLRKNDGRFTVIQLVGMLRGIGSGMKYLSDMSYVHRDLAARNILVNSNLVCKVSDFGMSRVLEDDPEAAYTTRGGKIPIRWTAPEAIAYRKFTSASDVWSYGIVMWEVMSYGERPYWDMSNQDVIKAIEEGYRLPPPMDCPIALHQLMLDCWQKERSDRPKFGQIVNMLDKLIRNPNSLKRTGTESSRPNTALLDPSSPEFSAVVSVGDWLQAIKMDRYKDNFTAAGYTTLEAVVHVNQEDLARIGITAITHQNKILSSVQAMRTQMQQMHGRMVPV
Method: Degradation of BTK, CSK, ABL2, EPHA4 and YES1 was measured in HEK293A cells (Invitrogen R70507) expressing either BTK-GFP and RFP, CSK-GFP and mCherry, GFP-ABL2 and mCherry, EPHA4-GFP and mCherry, or YES1-GFP and mCherry from a stably integrated bicistronic BTK-GFP-iresRFP, CSK-GFP-CHYSEL-mCherry, GFP-ABL2-CHYSEL-mCherry, EPHA4-GFP-CHYSEL-mCherry, or YES1-GFP-CHYSEL-mCherry construct, respectively. Reduction of the GFP signal measured by flow cytometry served as readout for BTK, CSK, ABL2, EPHA4 and YES1 degradation after degrader treatment.
293A BTK-GFP-Ires-RFP, CSK-GFP-CHYSEL-mCherry, GFP-ABL2-CHYSEL-mCherry, EPHA4-GFP-CHYSEL-mCherry, or YES1-GFP-CHYSEL-mCherry sensor cells were generated by lentiviral vector transduction using the pLenti6-BTK-GFP-Ires-RFP, pLenti6-mCherryCHYSEL-EGFP-ABL2, pLenti6-CSK-GFP-CHYSEL-mCherry, pLenti6-EPHA4-GFP-CHYSEL-mCherry or pLenti6-YES1-GFP-CHYSEL-mCherry sensor construct described before. Lentiviral particles were produced in HEK293FT cells (Invitrogen R70007) by co-transfection of 500 ng pLenti6-BTK-GFP-Ires-RFP or pLenti6-IKZF3-GFP-Ires-RFP, 500 ng delta8.71 and 200 ng pVSVG diluted in 100 μL OptiMEM serum free medium (Invitrogen #11058-021) that was mixed after 5 min preincubation with 3 μL of Lipofectamine2000 (Invitrogen #11668-019) in 97 μL OptiMEM serum free medium. The mix was incubated for another 20 min at RT and then added on 1 mL of a freshly prepared suspension of HEK293FT cells in a well of a 6-well plate (concentration 1.2×10^6 cells/mL). 1 day after transfection, the medium was replaced with 1.5 mL of complete growth medium (DMEM high Glucose+10% FCS+1% L-Glutamine+1% NEAA+1% NaPyr.). 48 h post transfection supernatant containing viral transducing particles was collected and frozen at −80° C.
2 days before transduction with viral particles 1×10^5 HEK293A cells (Invitrogen R70507) were seeded in 2 mL growth medium in a well of a 6-well plate. Infection was performed with 90 μL of collected supernatant containing viral transducing particles in 1 mL medium including 8 µg/mL polybrene. 24 h post infection, stably transfected cells were selected with blasticidin at a concentration of 8 μg/mL referred to as stable HEK293A sensor cells.
Stable HEK293A sensor cells were maintained in complete growth medium (DMEM high Glucose+10% FCS+1% L-Glutamine+1% NEAA+1% NaPyr.) with passaging performed twice per week. […] GFP and RFP are read in the channels called FITC and PE, respectively.
Concentration response curves plotting relative reduction of the GFP signal (measured by flow cytometry) versus 10 compound concentrations (starting concentration 10 μM, 3 fold dilution steps) of the compounds allowed generation of DC50 values.

Compound	BTK degradation Amax (BTK)	DC50 (BTK)	EPHA4 Amax (EPHA4)	DC50 (EPHA4)
COc1ccc(C(=O)N2CCC3(CCN(C(=O)CN4CCN(c5cc(Nc6ncc(C(=O)Nc7c(C)cccc7Cl)s6)nc(C)n5)CC4)CC3)CC2)cc1N1CCC(=O)NC1=O [compound 07, N-(2-chloro-6-methylphenyl)-2-((6-(4-(2-(9-(3-(2,4-dioxotetrahydropyrimidin-1(2H)-yl)-4-methoxybenzoyl)-3,9-diazaspiro[5.5]undecan-3-yl)-2-oxoethyl)piperazin-1-yl)-2-methylpyrimidin-4-yl)amino)thiazole-5-carboxamide]	0.9%	9.3 nM	9%	83 nM
COc1ccc(C(=O)N2CCC3(CCN(C(=O)CCCCCCCN4CCN(c5cc(Nc6ncc(C(=O)Nc7c(C)cccc7Cl)s6)nc(C)n5)CC4)CC3)CC2)cc1N1CCC(=O)NC1=O [compound 06, N-(2-chloro-6-methylphenyl)-2-((6-(4-(8-(9-(3-(2,4-dioxotetrahydropyrimidin-1(2H)-yl)-4-methoxybenzoyl)-3,9-diazaspiro[5.5]undecan-3-yl)-8-oxooctyl)piperazin-1-yl)-2-methylpyrimidin-4-yl)amino)thiazole-5-carboxamide]	2.1%	4.7 nM	9%	4 nM

From patent US20220387602A1, “BIFUNCTIONAL DEGRADERS AND THEIR METHODS OF USE” (NOVARTIS AG, priority 2019, published 2022)
